Measured values taken from PubChem BioAssay AID1963979 (Molecular Pharmacology Branch, DTP, NCI, 2024).

System: 361931-004-R-J1-PDC multicell spheroid viability
Assay: Anticancer human tumor 361931-004-R-J1-PDC patient-derived colon adenocarcinoma cell line growth inhibition [PI3K]
Settings: for IC50: curve of first compound; for viability, T/C: stronger effect = lower value
Text: Combinatorial screen of targeted agents with the PI3K inhibitors inavolisib, alpelisib, duvelisib, and copanlisib in multi-cell type tumor spheroids
A high-throughput screen of multi-cell type tumor spheroids was designed to identify active combinations of targeted small molecules and PI3K pathway inhibitors. Complex spheroids include a stromal component modeled by human endothelial cells (HUVEC) and fibroblasts modeled by human mesenchymal stem cells (MSCs). The concentration ranges selected for each drug and investigational agent were based upon clinically achievable concentrations if the clinical Cmax of the agent was known.
Compounds. The drugs and investigational agents: inavolisib (NSC800729), alpelisib (NSC765974), duvelisib (NSC772469), copanlisib (NSC816437), ipatasertib (NSC767898), afuresertib (NSC778305), talazoparib (NSC767125), sapanisertib (NSC764658), selumetinib (NSC741078), tovorafenib (DAY101, NSC766906), vemurafenib (NSC761431), ravoxertinib (NSC781343), sotorasib (NSC818433), MRTX1133 (NSC 836407), abemaciclib (NSC 768073), palbociclib (NSC758247), venetoclax (NSC 766270), SY5609 (NSC837396), enzalutamide (NSC755605), and darolutamide (NSC825331), were obtained from the National Cancer Institute (NCI) Developmental Therapeutics Program Chemical Repository. The FDA-approved anticancer drug set is available from the NCI Developmental Therapeutics Program. […] The stock solutions were prepared in dimethyl sulfoxide (DMSO, Sigma-Aldrich, St. Louis, MO, cat. D2650) at 800-fold the tested concentration and stored at -70 degrees C prior to their use. All drugs and investigational agents were tested over a range starting from a high concentration at or near the clinical Cmax and decreasing in half-log increments. If the clinical Cmax for an agent had not been determined, the highest concentration tested was 10 microM.
Cell Culture. All cells were maintained in an incubator at 37 degrees C and 5% CO2 with 95% humidity. The PDC lines were cultured according to standard operating procedures established by the NCI PDMR (https://pdmr.cancer.gov/sops/default.htm). All PDCs were thawed and cultured in Matrigel-coated flasks prepared with a working solution of 1X Ham's F-12 nutrient mix, without supplementation (Invitrogen, Waltham, MA, cat. 11765054), 100 U/mL penicillin-streptomycin (Invitrogen, cat. 15140122), and 2.5% Matrigel (Corning Inc., Corning, NY, cat. 354248) for the first three passages. The 354836-022-R-J1-PDC, 475296-252-R-J1-PDC, and 997726-040-R-J2-PDC lines were cultured in 6A media, which includes advanced DMEM/F-12 (Thermo Fisher Scientific, cat. 12634028), 10 mM HEPES (Thermo Fisher Scientific, cat. 15630080), 1X GlutaMAX supplement (Thermo Fisher Scientific, cat. 35050061), 0.1 mg/mL primocin (InvivoGen, San Diego, CA, cat. ant-pm-2), 10% defined fetal bovine serum, heat inactivated (HyClone Laboratories Inc., Logan, UT, cat. SH30070.03HI), 50% L-WRN conditioned media (ATCC, cat. CRL-3276), 1.25 mM N-Acetyl-L-cysteine (Sigma-Aldrich, cat. A9165), 10 mM nicotinamide (Sigma-Aldrich, cat. N0636), 1X B-27 supplement (Thermo Fisher Scientific, cat. 17504044), 1X N-2 supplement (Thermo Fisher Scientific, cat. 17502048), and 10 microM Y-27632 dihydrochloride (Tocris Bioscience, Bristol, United Kingdom, cat. 1254). The 624824-186-R-J2-PDC line was cultured in 6C/Colon 1B media, which includes all 6A media components plus 50 ng/mL human EGF recombinant protein (Thermo Fisher Scientific, cat. PHG0311). […]
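Also: spheroids exposed to agents for seven days before readout.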

IC50 (second compound 0.00316 µM): 1270 nM
IC50 (second compound 0.01 µM): 1240 nM
IC50 (second compound 0.0316 µM): 906 nM
IC50 (second compound 0.1 µM): 1360 nM
IC50 (second compound 0.316 µM): 1040 nM
IC50 (second compound 1 µM): 1090 nM
Structure (SMILES): CC(C)NCC(C(=O)N1CCN(c2ncnc3c2C(C)CC3O)CC1)c1ccc(Cl)cc1 (configuration not stated) + CC(Nc1ccc2c(c1)OCCn1cc(N3C(=O)OCC3C(F)F)nc1-2)C(N)=O
viability, T/C (second compound 0.00316 µM, first compound 0.0316 µM): 93.3%
viability, T/C (second compound 0.00316 µM, first compound 0.1 µM): 99%
viability, T/C (second compound 0.00316 µM, first compound 0.316 µM): 78.1%
viability, T/C (second compound 0.00316 µM, first compound 1 µM): 55.2%
viability, T/C (second compound 0.00316 µM, first compound 3.16 µM): 31.6%
viability, T/C (second compound 0.00316 µM, first compound 10 µM): 18.9%
viability, T/C (second compound 0.01 µM, first compound 0.0316 µM): 105%
viability, T/C (second compound 0.01 µM, first compound 0.1 µM): 92.9%
viability, T/C (second compound 0.01 µM, first compound 0.316 µM): 75.9%
viability, T/C (second compound 0.01 µM, first compound 1 µM): 55.3%
viability, T/C (second compound 0.01 µM, first compound 3.16 µM): 31.8%
viability, T/C (second compound 0.01 µM, first compound 10 µM): 19.9%
viability, T/C (second compound 0.0316 µM, first compound 0.0316 µM): 97.9%
viability, T/C (second compound 0.0316 µM, first compound 0.1 µM): 96.6%
viability, T/C (second compound 0.0316 µM, first compound 0.316 µM): 76%
viability, T/C (second compound 0.0316 µM, first compound 1 µM): 46.4%
viability, T/C (second compound 0.0316 µM, first compound 3.16 µM): 30.2%
viability, T/C (second compound 0.0316 µM, first compound 10 µM): 18.8%
viability, T/C (second compound 0.1 µM, first compound 0.0316 µM): 101%
viability, T/C (second compound 0.1 µM, first compound 0.1 µM): 95%
viability, T/C (second compound 0.1 µM, first compound 0.316 µM): 71.2%
viability, T/C (second compound 0.1 µM, first compound 1 µM): 50.9%
viability, T/C (second compound 0.1 µM, first compound 3.16 µM): 41.8%
viability, T/C (second compound 0.1 µM, first compound 10 µM): 18.3%
viability, T/C (second compound 0.316 µM, first compound 0.0316 µM): 90.5%
viability, T/C (second compound 0.316 µM, first compound 0.1 µM): 77.4%
viability, T/C (second compound 0.316 µM, first compound 0.316 µM): 74%
viability, T/C (second compound 0.316 µM, first compound 1 µM): 51.2%
viability, T/C (second compound 0.316 µM, first compound 3.16 µM): 28.6%
viability, T/C (second compound 0.316 µM, first compound 10 µM): 20.7%
viability, T/C (second compound 1 µM, first compound 0.0316 µM): 72.3%
viability, T/C (second compound 1 µM, first compound 0.1 µM): 71.1%
viability, T/C (second compound 1 µM, first compound 0.316 µM): 68.9%
viability, T/C (second compound 1 µM, first compound 1 µM): 51.7%
viability, T/C (second compound 1 µM, first compound 3.16 µM): 25.3%
viability, T/C (second compound 1 µM, first compound 10 µM): 15.3%
